Source: patent publication US8962257B2, “Methods for diagnosing heart failure and other cardiac diseases” (The Trustees of the University of Pennsylvania, priority 2010, dated 2015)

System: NRG-1β
Test: Serial plasma NRG-1β by indirect sandwich ELISA in Her-2+ breast cancer patients receiving doxorubicin and trastuzumab
Type: in vivo, human
Conditions: with Doxorubicin exposure
Method: NRG-1β is measured from frozen, previously unthawed serum or plasma samples that had been stored at −80° C. until time of assay. An indirect sandwich enzyme-linked immunosorbent assay (ELISA) was used (NRG1-β1 Duoset ELISA development system from R&D Systems, Minneapolis, Minn.). Assay technology was adapted for human samples, and all measurements were performed at Vanderbilt University. […] Following incubation, a biotinylated goat anti-human NRG1-β1 detection antibody was added to each well, and a streptavidin-HRP system was used for detection. […] Extensive validation was performed and there was no cross-reactivity with NRG-1α isoform or epidermal growth factor.
Data were obtained at enrollment and every 3 months during anti-cancer therapy.
NRG-1β plasma level was measured serially every 3 months during chemotherapy treatment.

COc1cccc2c1C(=O)c1c(O)c3c(c(O)c1C2=O)C[C@@](O)(C(=O)CO)C[C@@H]3O[C@H]1C[C@H](N)[C@H](O)[C@H](C)O1 [Doxorubicin, doxorubicin]
change in NRG-1β over time: significant decrease
change in NRG-1β over time (listed as doxorubicin): significant decline
